Assay results published in patent US7214675B2, “Urea substituted imidazoquinoline ethers” (3M Innovative Properties Company, priority 2000, dated 2007).

Assays:
[1] = system: tumor necrosis factor (α) induction in human peripheral blood mononuclear cells (PBMC); assay: Cytokine induction in human cells: tumor necrosis factor (α) secreted by PBMC, ELISA or IGEN assay; format: cell-based; details: lowest concentration found to induce tumor necrosis factor, incubated 18 to 24 hours at 37° C.
Source text: (§1) An in vitro human blood cell system is used to assess cytokine induction. Activity is based on the measurement of interferon and tumor necrosis factor (α) (IFN and TNF, respectively) secreted into culture media as described by Testerman et. al. In “Cytokine Induction by the Immunomodulators Imiquimod and S-27609”, Journal of Leukocyte Biology, 58, 365–372 (September, 1995).
(§2) Whole blood from healthy human donors is collected by venipuncture into EDTA vacutainer tubes. Peripheral blood mononuclear cells (PBMC) are separated from whole blood by density gradient centrifugation using Histopaque®-1077. Blood is diluted 1:1 with Dulbecco's Phosphate Buffered Saline (DPBS) or Hank's Balanced Salts Solution (HBSS). The PBMC layer is collected and washed twice with DPBS or HBSS and resuspended at 4×10^6 cells/mL in RPMI complete. The PBMC suspension is added to 48 well flat bottom sterile tissue culture plates (Costar, Cambridge, Mass. or Becton Dickinson Labware, Lincoln Park, N.J.) containing an equal volume of RPMI complete media containing test compound.
(§3) The compounds are solubilized in dimethyl sulfoxide (DMSO). The DMSO concentration should not exceed a final concentration of 1% for addition to the culture wells. The compounds are generally tested at concentrations ranging from 30–0.014 μM.
(§4) The solution of test compound is added at 60 μM to the first well containing RPMI complete and serial 3 fold dilutions are made in the wells. The PBMC suspension is then added to the wells in an equal volume, bringing the test compound concentrations to the desired range (30–0.014 μM). The final concentration of PBMC suspension is 2×10^6 cells/mL. The plates are covered with sterile plastic lids, mixed gently and then incubated for 18 to 24 hours at 37° C. in a 5% carbon dioxide atmosphere.
(§5) Following incubation the plates are centrifuged for 10 minutes at 1000 rpm (˜200×g) at 4° C. The cell-free culture supernatant is removed with a sterile polypropylene pipet and transferred to sterile polypropylene tubes. Samples are maintained at −30 to −70° C. until analysis. The samples are analyzed for interferon (α) by ELISA and for tumor necrosis factor (α) by ELISA or IGEN Assay
Tumor necrosis factor (α) (TNF) concentration is determined using ELISA kits available from Biosource International, Camarillo, Calif. Alternately, the TNF concentration can be determined by Origen® M-Series Immunoassay and read on an IGEN M-8 analyzer from IGEN International, Gaithersburg, Md. The immunoassay uses a human TNF capture and detection antibody pair from Biosource International, Camarillo, Calif. Results are expressed in pg/mL.
(§6) The table below lists the lowest concentration found to induce interferon and the lowest concentration found to induce tumor necrosis factor for each compound.

[2] = system: interferon (α) induction in human peripheral blood mononuclear cells (PBMC); assay: Cytokine induction in human cells: interferon (α) secreted by PBMC, ELISA; format: cell-based; details: lowest concentration found to induce interferon, incubated 18 to 24 hours at 37° C.
Source text: as §1, §2, §3, §4, §5
Interferon (α) concentration is determined by ELISA using a Human Multi-Species kit from PBL Biomedical Laboratories, New Brunswick, N.J. Results are expressed in pg/mL.
as §6

Compound	melting point [°C]	minimal effective concentration [1] [µM]	minimal effective concentration [2] [µM]
COCCc1nc2c(N)nc3ccccc3c2n1CCOCCN(C)C(=O)Nc1ccccc1 [Example 3, N-(2-{2-[4-amino-2-(2-methoxyethyl)-1H-imidazo[4,5-c]quinolin-1-yl]ethoxy}ethyl)-N-methyl-N′-phenylurea]	184.8 to 185.8	0.37	0.01
Cc1nc2c(N)nc3ccccc3c2n1CCOCCNC(=O)NC1CCCCC1 [Example 49, N-{2-[2-(4-amino-2-methyl-1H-imidazo[4,5-c]quinolin-1-yl)ethoxy]ethyl}-N′-cyclohexylurea]	207 to 209		
CCc1nc2c(N)nc3ccccc3c2n1CCOCCNC(=O)NC1CCCCC1 [Example 51, N-{2-[2-(4-amino-2-ethyl-1H-imidazo[4,5-c]quinolin-1-yl)ethoxy]ethyl}-N′-cyclohexylurea]	198 to 200		
CCc1nc2c(N)nc3ccccc3c2n1CCOCCNC(=O)N1CCOCC1 [Example 52, N-{2-[2-(4-amino-2-ethyl-1H-imidazo[4,5-c]quinolin-1-yl)ethoxy]ethyl}morpholine-4-carboxamide]	182 to 184		

Continued, in another order:

melting point [°C]	Compound	minimal effective concentration [1] [µM]	minimal effective concentration [2] [µM]
183 to 186	CCOCc1nc2c(N)nc3ccccc3c2n1CCOCCNC(=O)Nc1ccccc1 [Example 53, N-(2-{2-[4-amino-2-(ethoxymethyl)-1H-imidazo[4,5-c]quinolin-1-yl]ethoxy}ethyl)-N′-phenylurea]		
161 to 164	CCOCc1nc2c(N)nc3ccccc3c2n1CCOCCNC(=O)NC1CCCCC1 [Example 54, N-(2-{2-[4-amino-2-(ethoxymethyl)-1H-imidazo[4,5-c]quinolin-1-yl]ethoxy}ethyl)-N′cyclohexylurea]		
178 to 181	CCOCc1nc2c(N)nc3ccccc3c2n1CCOCCNC(=O)N1CCOCC1 [Example 55, N-(2-{2-[4-amino-2-(ethoxymethyl)-1H-imidazo[4,5-c]quinolin-1-yl]ethoxy}ethyl)morpholine-4-carboxamide]		
